According to publication PMC6985102 (Scientific Reports, 2020):

Key:
[1] = test system: C1498 cells; test: Cytotoxicity of SeC (CellTiter-Glo); conditions: C1498 leukemic cells, 24 hr, within the concentration range tested
Description: C1498 cells were cultured in DMEM supplemented with FBS (10%, v/v), penicillin (100 unit/mL) and streptomycin (100 µg/mL). Cells under the exponential growth phase were used for the cytotoxicity study. […] The stock solutions were diluted with cell culture medium till target concentration range. Briefly, 350 µL of cell suspension (0.2 × 10^6 cells/mL) were mixed with equal volume of SeC solution. The mixture was aliquoted to 96-well plate (100 µL per well) and incubated for 24 hours. Cell viability was determined using CellTiter-Glo kit (Promega, G7571). Cells treated with the appropriate solvent were used as the control. Cell survival rate was calculated as the percentage of […] in SeC-treated cells/control group.

[2] = target: human serum albumin (Homo sapiens, UniProt P02768); test: XAS linear combination fitting of SeC-human plasma mixture (SeC-HP); conditions: XANES linear combination fitting, total SeC 20 µg/ml; for SeC-HSA (%): albumin-bound share in SeC-human plasma mixture; for SeC (%): free SeC share in SeC-human plasma mixture
human serum albumin, sequence (P02768 25-609): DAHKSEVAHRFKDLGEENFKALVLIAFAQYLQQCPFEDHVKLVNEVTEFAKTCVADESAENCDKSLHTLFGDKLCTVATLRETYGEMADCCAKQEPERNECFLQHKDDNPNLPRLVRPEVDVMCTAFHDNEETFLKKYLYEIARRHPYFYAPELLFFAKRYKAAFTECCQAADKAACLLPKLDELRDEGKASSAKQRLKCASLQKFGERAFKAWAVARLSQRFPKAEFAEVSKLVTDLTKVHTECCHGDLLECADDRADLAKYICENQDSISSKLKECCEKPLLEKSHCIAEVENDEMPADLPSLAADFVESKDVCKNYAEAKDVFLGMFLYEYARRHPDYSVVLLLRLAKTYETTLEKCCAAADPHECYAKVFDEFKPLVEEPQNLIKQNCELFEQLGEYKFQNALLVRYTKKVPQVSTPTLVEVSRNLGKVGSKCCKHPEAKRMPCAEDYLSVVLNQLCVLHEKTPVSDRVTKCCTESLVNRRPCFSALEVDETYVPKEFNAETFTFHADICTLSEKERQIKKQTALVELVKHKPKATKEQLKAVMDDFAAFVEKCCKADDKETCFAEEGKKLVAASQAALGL
Description: SeC solution (40 µL; 2 mg/mL) was mixed with HSA (50 mg/mL in H2O; […]) and kept at room temperature for 30 min. The crude material was separated on a Superdex 200 Increase 10/300 GL column (GE Healthcare). The mobile phase consisted of ACN/H2O (5/95; v/v) at a flow rate of 0.75 mL/min. A total of 40 fractions (1 ml per fraction) approximately were collected, pooled and lyophilized (selenol-human serum albumin conjugate; SeC-HSA).
The mixture of SeC and human plasma (SeC-HP) was prepared. Generally, SeC solution (20 µL; 2 mg/mL) was mixed with 2 mL human plasma, kept at room temperature for 10 min and lyophilized. Selenium K-edge XAS measurements were performed in QEXAFS mode using a Si(311) double-crystal monochromator in CLAESS beamline at ALBA synchrotron light facility (Barcelona, Spain). Self-supported 5 mm pellets of SeC-HSA or SeC-HP (~20 mg) were measured in fluorescence mode using a 5 elements Silicon drift detector. For the reference compounds, the appropriate amount of pure SeC was mixed with cellulose to form pellets with an optimum absorption jump in transmission mode. Transmission was measured with ionization chambers filled with appropriate mixtures of N2 and Kr gases. To avoid radiation damage, all measurements were performed at liquid N2 temperature using the cryostat available at the beamline. Data analysis was performed using Demeter software package (version 0.9.26)[23].
In order to confirm the albumin binding, SeC was firstly allowed to react with HSA. The crude material was then separated by size exclusion chromatography and the eluent corresponding to […] was collected and lyophilized (SeC-HSA). SeC-HSA was subsequently subjected to XAS measurement and compared to the SeC itself. […] In addition, since the XAS spectra of mixtures can be expressed as an additive combination of its constituents, a linear combination fitting analysis using the reference spectra of SeC-HSA and SeC was carried out to assess the amount of each form in the mixture of SeC and human plasma (SeC-HP).
27 Supplementary Table 3. Linear combination fitting results of X-ray absorption near
28 edge spectra. The fitting was performed over the spectra for selenocompound-human plasma
29 mixture between -20 and 50 eV keeping E0 fixed and equal to 0 eV.

[3] = Pharmacokinetic study in mouse; conditions: for clearance / half-life: C57BL/6 albino, iv
Description: Blank plasma (10 µL) was spiked with 5 µL of SeC solution. NEM (10 µL, 0.4 M in DMA) and TCEP (5 µL, 0.2 M in H2O) were successively added to the spiked plasma. The mixture was vortexed for 30 sec and left for 10 min at room temperature before deproteinization using 50 µL of ACN. Two µL of processed sample were injected for LC-MS analysis (LC-MS parameters listed in Supplementary Table 2).
All animal experiments were approved by the Stockholm Southern Ethical Committee and performed in accordance with Swedish Animal Welfare Law (ethical permit no. ID 1031). CysSe2 (0.7 mg/mL) or MeSeA (1 mg/mL) was prepared in DPBS and the pH was adjusted to around 7.4. Ebselen or p-XSC was first dissolved in DMSO/Cremophor EL (1:1, v/v) at 5 mg/mL and then diluted with DPBS till 0.5 mg/mL. CysSe2 or MeSeA was injected into C57BL/6 albino mouse via the tail vein at a dose of 5 mg/kg; while the dose for ebselen and p-XSC was 2 mg/kg. Approximately 50 µL of blood were collected from the facial vein at different time points into EDTA-coated vials. SeC concentration in plasma was analyzed as described under section “Analysis of SeC using RECID”. The detected concentrations were fitted to a bolus injection in a one-compartment open model and the pharmacokinetic parameters were calculated using WinNonLin software (version 2.0).

[4] = Stability of selenocompound in plasma and selenol derivative in processed sample (RECID); type: in vitro ADME, human
Description: 48 Supplementary Table 7. Stability of selenocompound in plasma and selenol derivative in
49 processed sample. SeC-spiked plasma was treated as indicated and then analyzed using
50 RECID. SeC-NEM in processed sample was treated in the same way and then subjected to
51 LC-MS analysis. Stability was shown as the percentage of the peak area after indicated
52 treatment to that from base line value. SeC concentrations were 20 µg/mL. Results are shown
53 as the mean ± SD of three technical replicates.
SeC Sample Type Treatment
RT/24 hr 4 °C/24 hr -20 °C/24 hr Freeze-Thaw/5 Cycles

[5] = target: T1, BSA (Bos taurus, UniProt P02769); test: Albumin binding degree by ultrafiltration; type: in vitro ADME, bovine; parameters: purchased Thermo Fisher; conditions: 5% albumin solution, SeC 20 µg/mL
T1 sequence (P02769 25-607): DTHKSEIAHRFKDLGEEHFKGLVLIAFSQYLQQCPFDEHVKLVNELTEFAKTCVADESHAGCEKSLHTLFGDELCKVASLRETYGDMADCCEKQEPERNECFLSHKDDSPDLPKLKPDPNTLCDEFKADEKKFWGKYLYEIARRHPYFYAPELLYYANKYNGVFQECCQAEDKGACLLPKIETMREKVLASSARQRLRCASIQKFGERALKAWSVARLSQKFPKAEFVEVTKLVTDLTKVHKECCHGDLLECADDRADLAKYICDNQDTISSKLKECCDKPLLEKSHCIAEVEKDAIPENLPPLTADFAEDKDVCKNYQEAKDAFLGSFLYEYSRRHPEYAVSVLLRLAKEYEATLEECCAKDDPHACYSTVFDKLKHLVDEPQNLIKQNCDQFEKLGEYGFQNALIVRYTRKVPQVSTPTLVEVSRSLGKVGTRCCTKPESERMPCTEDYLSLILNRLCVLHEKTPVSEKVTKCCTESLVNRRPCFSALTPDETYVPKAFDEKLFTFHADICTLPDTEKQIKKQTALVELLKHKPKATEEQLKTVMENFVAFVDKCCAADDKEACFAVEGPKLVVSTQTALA
Description: Two hundred µL of SeC solution were mixed with equal volume of H2O (control) or 5% BSA solution (final SeC concentration being 20 µg/mL). The mixture was transferred into an ultrafiltration tube (cut off 10 kDa, Sigma-Aldrich, 13239E) and centrifuged (2000 g and 5 min) to obtain the ultra-filtrate. Twenty µL of the ultra-filtrate were mixed with 50 µL of ACN and analyzed for SeC in parent form. Albumin binding degree was calculated as the percentage of SeC peak area in BSA solution in relative to that in H2O.

[6] = target: T1, BSA; test: Extraction efficiency of parent SeC after deproteinization (BSA, NEM-pretreated BSA)
Description: The spiked matrix was obtained by adding 10 µL of SeC solution into 10 µL of blank plasma or 5% BSA solution. To extract the parent SeC from the prepared spiked matrix (20 µL), 50 µL of ACN were added followed by rigorous vortexing. The mixture was centrifuged (30,000 g, 10 min) to obtain the extract. Two µL of the extract were injected into the liquid chromatography-mass spectrometry (LC-MS, Thermo TSQ Quantum Ultra) analyzer. Details about LC conditions (column, mobile phase and flow rate) and MS parameters were listed in Supplementary Table 1.
To clarify the role of albumin thiols, 10 µL of 5% BSA solution were pre-incubated with NEM (10 µL, 0.4 M in DMA) for 10 min before being mixed with SeC solution (10 µL). Again, 50 µL of ACN were used for extraction and 2 µL of the extract were injected into LC-MS for analysis.

[7] = Spiked Plasma, 4 °C/24 hr, SeC 20 µg/mL
[8] = Spiked Plasma, -20 °C/24 hr, SeC 20 µg/mL
[9] = Spiked Plasma, Freeze-Thaw/5 Cycles, SeC 20 µg/mL
[10] = Spiked Plasma, RT/24 hr, SeC 20 µg/mL
[11] = 5% BSA (pristine albumin) after deproteinization, SeC 20 µg/mL
[12] = NEM pretreated-BSA (albumin thiols blocked) after deproteinization, SeC 20 µg/mL

SMILES	Cytotoxicity [1]	SeC-HSA (%) [2] [%]	SeC (%) [2] [%]	clearance ([3]; plasma) [mL/min]	half-life ([3]; plasma) [min]	Stability (peak area vs base line) [4, 7] [%]	Stability (peak area vs base line) [4, 8] [%]	Stability (peak area vs base line) [4, 9] [%]	Stability (peak area vs base line) [4, 10] [%]	Albumin binding degree [5]	Extraction efficiency [6, 11]	Extraction efficiency [6, 12] [%]	also measured
NC(C[Se][Se]CC(N)C(=O)O)C(=O)O (stereo not shown) [CysSe2, Selenocystine]	showed cytotoxicity	80.4	19.6	0.642	8.4 ± 1.2	100.9 ± 7.9	99.6 ± 6.4	102.2 ± 0.6	98.6 ± 7.1	52–100%	21.4%	79.6	Total exposure compared to that of ebselen ([3]; intravenous, CysSe2 5 mg/kg vs ebselen 2 mg/kg): around 72%; Exposure adjusted for dose, relative to ebselen ([3]; intravenous, dose-adjusted): less than one third
O=c1c2ccccc2[se]n1-c1ccccc1 [Ebselen]	showed cytotoxicity	91.5	8.5	0.177	13.2 ± 2.4	113.1 ± 0.5	108.2 ± 3.2	97.2 ± 2.7	110.3 ± 1.8	52–100%	9.3%	90.7	
C[Se](=O)O [MeSeA, methylseleninic acid]	showed cytotoxicity	100.0	0			108.9 ± 4.8	116.0 ± 3.2	117.3 ± 0.5	110.9 ± 2.0	52–100%	0%	94.8	Stability (peak area vs base line) ([4]; Processed sample (SeC-NEM derivative), 4 °C/24 hr): 106.7 ± 0.5%; Stability (peak area vs base line) ([4]; Processed sample (SeC-NEM derivative), -20 °C/24 hr): 103.2 ± 1.0%; Stability (peak area vs base line) ([4]; Processed sample (SeC-NEM derivative), Freeze-Thaw/5 Cycles): 104.3 ± 0.4%; Stability (peak area vs base line) ([4]; Processed sample (SeC-NEM derivative), RT/24 hr): 114.3 ± 0.3%
C[Se]C[C@H](N)C(=O)O [MeSeCys, methylselenocysteine]	no cytotoxic effect									< 3%			Extraction efficiency ([6]; bovine, 20 µg/mL): over 95%
C[Se]CC[C@H](N)C(=O)O [SeMet, Selenomethionine]	no cytotoxic effect									< 3%	over 95%		
N#C[Se]Cc1ccc(C[Se]C#N)cc1 [p-XSC, p-xyleneselenocyanate]	showed cytotoxicity	100.0	0							52–100%			clearance ([3]; in vivo): 0.0967 mL/min; half-life ([3]; in vivo): 30.6 ± 7.2 min
